Data on 78 compounds can be found in patent US7998987B2, “Inhibitors of c-Met and uses thereof” (Vertex Pharmaceuticals Incorporated, priority 2005, dated 2011).

The structures appear in SMILES notation.

For the test, the target named is c-Met (Homo sapiens, UniProt P08581). The test is described as follows: Ki determination for the inhibition of c-Met kinase activity (standard coupled enzyme system). Type of test: biochemical. The following applies: coupled enzyme system, 200 μM ATP, 10 μM polyGluTyr, 80 nM c-Met, 30° C.; read-out: c-Met Ki. As to the method: Ki Determination for the Inhibition of c-Met
Chain of c-Met (P08581 25-1390): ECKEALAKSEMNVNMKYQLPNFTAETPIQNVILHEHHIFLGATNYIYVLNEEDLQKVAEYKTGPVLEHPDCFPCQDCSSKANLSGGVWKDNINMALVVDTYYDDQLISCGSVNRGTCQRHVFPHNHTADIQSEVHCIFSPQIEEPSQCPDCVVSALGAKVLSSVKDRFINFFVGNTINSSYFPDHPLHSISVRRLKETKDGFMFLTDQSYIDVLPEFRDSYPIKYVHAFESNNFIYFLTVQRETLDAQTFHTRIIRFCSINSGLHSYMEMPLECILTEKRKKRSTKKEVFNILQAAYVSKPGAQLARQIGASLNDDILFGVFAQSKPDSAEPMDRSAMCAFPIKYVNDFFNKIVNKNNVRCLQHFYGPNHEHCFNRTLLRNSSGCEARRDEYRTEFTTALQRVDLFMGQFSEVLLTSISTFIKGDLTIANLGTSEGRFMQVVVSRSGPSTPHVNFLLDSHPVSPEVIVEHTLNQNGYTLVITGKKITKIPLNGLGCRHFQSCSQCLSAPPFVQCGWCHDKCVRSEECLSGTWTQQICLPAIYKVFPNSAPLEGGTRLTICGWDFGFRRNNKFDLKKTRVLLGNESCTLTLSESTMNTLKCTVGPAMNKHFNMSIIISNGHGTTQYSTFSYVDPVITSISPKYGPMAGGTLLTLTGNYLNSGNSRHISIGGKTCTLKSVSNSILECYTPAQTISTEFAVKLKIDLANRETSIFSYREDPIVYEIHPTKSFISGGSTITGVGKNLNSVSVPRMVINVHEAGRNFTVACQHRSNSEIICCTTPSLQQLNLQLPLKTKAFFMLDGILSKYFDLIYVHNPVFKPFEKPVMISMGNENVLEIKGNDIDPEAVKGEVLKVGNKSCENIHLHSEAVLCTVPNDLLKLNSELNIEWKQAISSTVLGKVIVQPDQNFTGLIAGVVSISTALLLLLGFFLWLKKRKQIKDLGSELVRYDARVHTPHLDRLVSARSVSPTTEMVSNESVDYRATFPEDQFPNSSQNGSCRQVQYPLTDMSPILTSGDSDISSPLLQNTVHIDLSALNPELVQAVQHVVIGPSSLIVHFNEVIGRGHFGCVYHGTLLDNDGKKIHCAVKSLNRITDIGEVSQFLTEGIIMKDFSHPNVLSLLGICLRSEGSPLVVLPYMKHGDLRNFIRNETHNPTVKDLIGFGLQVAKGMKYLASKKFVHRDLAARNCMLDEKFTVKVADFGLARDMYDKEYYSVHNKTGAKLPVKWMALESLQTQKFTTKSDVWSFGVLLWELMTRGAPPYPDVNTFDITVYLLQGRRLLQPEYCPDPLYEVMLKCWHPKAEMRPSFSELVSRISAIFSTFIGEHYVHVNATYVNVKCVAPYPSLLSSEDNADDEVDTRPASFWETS
Reactions were carried out in a solution containing 100 mM HEPES (pH 7.5), 10 mM MgCl2, 25 mM NaCl, 300 μM NADH, 1 mM DTT, and 1.5% DMSO. Final substrate concentrations in the assay were 200 μM ATP (Sigma Chemicals, St Louis, Mo.) and 10 μM polyGluTyr (Sigma Chemical Company, St. Louis). Reactions were carried out at 30° C. and 80 nM c-Met. Final concentrations of the components of the coupled enzyme system were 2.5 mM phosphoenolpyruvate, 300 μM NADH, 30 μg/ml pyruvate kinase and 10 μg/ml lactate dehydrogenase.
An assay stock buffer solution was prepared containing all of the reagents listed above with the exception of ATP and a test compound of the present invention. […] The reaction was initiated by the addition of 20 μL of ATP (final concentration 200 μM). Rates of reaction were obtained using a Molecular Devices Spectramax plate reader (Sunnyvale, Calif.) over 10 minutes at 30° C. The Ki values were determined from the rate data as a function of inhibitor concentration.
Regarding `c1cc2c(cc1Cc1nnc3sc(NCC4CCCO4)nn13)OCO2` (stereo not drawn) [Compound 42], the Ki was above 2000 nM.
For the compound `Oc1ccc(Cc2nnc3sc(Nc4ccc(C(F)(F)F)cc4)nn23)cc1` [Compound 43], the Ki was below 100 nM.
Consider `Cc1cccc(Nc2nn3c(Cc4ccc(O)cc4)nnc3s2)c1` [Compound 44], for which the Ki is below 100 nM.
With `Oc1ccc(Cc2nnc3sc(Nc4cccc(Cl)c4Cl)nn23)cc1` [Compound 45] the figure was below 100 nM; with `Oc1ccc(Cc2nnc3sc(Nc4ccc(F)cc4)nn23)cc1` [Compound 46], below 100 nM; with `c1ccc([C@@H]2C[C@H]2c2nn3c(Cc4ccc5c(c4)OCO5)nnc3s2)cc1` [Compound 47], above 2000 nM.
The value for `c1coc(-c2nn3c(Cc4ccc5c(c4)OCO5)nnc3s2)c1` [Compound 48] was above 2000 nM.
As to `c1csc(Cc2nn3c(Cc4ccc5c(c4)OCO5)nnc3s2)c1` [Compound 49], the Ki is above 2000 nM.
The value for `Oc1ccc(Cc2nnc3sc(Nc4cc(Cl)cc(Cl)c4)nn23)cc1` [Compound 50] was below 100 nM; that for `COc1cc(Cc2nnc3sc(Nc4cccnc4)nn23)ccc1O` [Compound 51] was above 2000 nM.
With `Oc1ccc(Cc2nnc3sc(Nc4ccc(Cl)cc4)nn23)cc1` [Compound 52] the figure was below 100 nM; with `CC(c1ccc(O)cc1)c1nnc2sc(Nc3ccc(Cl)cc3)nn12` (stereo not drawn) [Compound 53], below 100 nM; with `Oc1ccc(Cc2nnc3sc(Nc4ccc(Cl)cc4)nn23)cc1F` [Compound 54], below 100 nM.
The value for `Oc1ccc(Cc2nnc3sc(Nc4ccc(Cl)cc4)nn23)cc1Cl` [Compound 55] was 100 to 2000 nM; that for `Clc1ccc(Nc2nn3c(Cc4ccc5c(c4)OCO5)nnc3s2)cc1` [Compound 56] was 100 to 2000 nM.
For `O=C(Nc1nn2c(Cc3ccc(O)cc3)nnc2s1)c1ccccc1` [Compound 57], the Ki was above 2000 nM.
As to `Oc1ccc(Cc2nnc3sc(Nc4cccc(F)c4)nn23)cc1` [Compound 59], the Ki was below 100 nM.
As for `Cc1ccc(Nc2nn3c(Cc4ccc(O)cc4)nnc3s2)cc1` [Compound 60], the Ki is below 100 nM.
With `COC(=O)c1cccc(Nc2nn3c(Cc4ccc(O)cc4)nnc3s2)c1` [Compound 61] the figure was below 100 nM; with `CC(c1ccc(O)cc1)c1nnc2sc(Nc3cccc(Cl)c3)nn12` (stereo not drawn) [Compound 63], below 100 nM; with `COc1ccc(Nc2nn3c(Cc4ccc(O)c(F)c4)nnc3s2)cc1` [Compound 64], 100 to 2000 nM.
With `COc1ccc(Nc2nn3c(Cc4ccc5c(c4)OCO5)nnc3s2)cc1` [Compound 65] the figure was 100 to 2000 nM; with `CC(c1ccc(O)cc1)c1nnc2sc(Nc3ccccc3Cl)nn12` (stereo not drawn) [Compound 66], below 100 nM; with `Oc1ccc(Cc2nnc3sc(Nc4ccccc4Cl)nn23)cc1Cl` [Compound 67], 100 to 2000 nM.
With `Clc1ccccc1Nc1nn2c(Cc3ccc4c(c3)OCO4)nnc2s1` [Compound 68] the figure was 100 to 2000 nM; with `COC(=O)c1ccccc1Nc1nn2c(Cc3ccc(O)cc3)nnc2s1` [Compound 69], above 2000 nM; with `Oc1ccc(Cc2nnc3sc(Nc4ccc5nsnc5c4)nn23)cc1` [Compound 70], above 2000 nM.
In the case of `Oc1ccc(Cc2nnc3sc(Nc4ccc(-n5cccn5)cc4)nn23)cc1` [Compound 71], the Ki is below 100 nM.
The value for `Cc1ccc(Nc2nn3c(Cc4ccc(O)cc4)nnc3s2)cc1C` [Compound 72] was 100 to 2000 nM.
The value for `Cc1ccc(Nc2nn3c(Cc4ccc(O)cc4)nnc3s2)cc1Cl` [Compound 73] was 100 to 2000 nM; that for `CN(C)c1ccc(Nc2nn3c(Cc4ccc(O)cc4)nnc3s2)cc1` [Compound 74] was 100 to 2000 nM; that for `Cc1ccc(F)cc1Nc1nn2c(Cc3ccc(O)cc3)nnc2s1` [Compound 75] was below 100 nM.
With `Cc1cc(F)ccc1Nc1nn2c(Cc3ccc(O)cc3)nnc2s1` [Compound 76] the figure was 100 to 2000 nM.
For `Oc1ccc(Cc2nnc3sc(Nc4cc(Cl)ccc4Cl)nn23)cc1` [Compound 77], the Ki was below 100 nM.
With `Oc1ccc(Cc2nnc3sc(Nc4ccccc4Cl)nn23)cc1` [Compound 78], the Ki was below 100 nM.
With `Oc1ccc(Cc2nnc3sc(Nc4ccccc4Cl)nn23)cc1F` [Compound 79] the figure was 100 to 2000 nM.
On to `COc1ccc(Nc2nn3c(Cc4ccc(O)cc4)nnc3s2)cc1` [Compound 80], for which the Ki is below 100 nM.
Turning to `Oc1ccc(Cc2nnc3sc(Nc4cccnc4)nn23)cc1` [Compound 81], the Ki was below 100 nM.
The value for `CC(c1ccc(O)cc1)c1nnc2sc(Nc3cccnc3)nn12` (stereo not drawn) [Compound 82] was below 100 nM; that for `Oc1ccc(Cc2nnc3sc(Nc4cccnc4)nn23)cc1F` [Compound 83] was 100 to 2000 nM; that for `c1cncc(Nc2nn3c(Cc4ccc5c(c4)OCO5)nnc3s2)c1` [Compound 84] was 100 to 2000 nM.
The value for `CN(C)c1ccc(Nc2nn3c(Cc4ccc5c(c4)OCO5)nnc3s2)cc1` [Compound 85] was 100 to 2000 nM; that for `Oc1ccc(Cc2nnc3sc(NC4CCCCC4)nn23)cc1` [Compound 86] was 100 to 2000 nM; that for `CNC(=O)c1nn2c(C(C)c3ccc(O)cc3)nnc2s1` (stereo not drawn) [Compound 87] was above 2000 nM.
As to `CC(c1ccc(O)cc1)c1nnc2sc(C(N)=O)nn12` (stereo not drawn) [Compound 88], the inhibitory constant (Ki) was above 2000 nM.
On to `CC(c1ccc(O)cc1)c1nnc2sc(C(=O)N3CCCC3)nn12` (stereo not drawn) [Compound 89], for which the Ki is above 2000 nM.
For the compound `CC(c1ccc(O)cc1)c1nnc2sc(C(=O)NC3CC3)nn12` (stereo not drawn) [Compound 90], the Ki is above 2000 nM.
With `Clc1ccc(Cc2nnc3sc(Nc4cccc(Cl)c4)nn23)cc1` [Compound 91] the figure was above 2000 nM; with `Oc1cccc(CCc2nnc3sc(Nc4cccc(Cl)c4)nn23)c1` [Compound 92], above 2000 nM.
For `Oc1ccc(CCc2nnc3sc(Nc4cccc(F)c4)nn23)cc1` [Compound 93], the Ki was above 2000 nM.
On to `Oc1ccc(CCc2nnc3sc(Nc4cccc(Cl)c4)nn23)cc1` [Compound 94], for which the Ki is above 2000 nM.
The value for `Oc1cccc(CCc2nnc3sc(Nc4cccc(F)c4)nn23)c1` [Compound 95] was above 2000 nM; that for `Oc1ccc(Cc2nnc3sc(Nc4cccc(F)c4)nn23)cc1Cl` [Compound 97] was below 100 nM; that for `Oc1ccc(Cc2nnc3sc(Nc4cccc(F)c4F)nn23)cc1F` [Compound 99] was 100 to 2000 nM.
With `CC(c1ccc(O)cc1)c1nnc2sc(Nc3cccc(F)c3)nn12` (stereo not drawn) [Compound 100] the figure was below 100 nM.
The value for `CC(c1ccc(O)cc1)c1nnc2sc(Nc3cccc(F)c3F)nn12` (stereo not drawn) [Compound 101] was below 100 nM; that for `Oc1ccc(CCc2nnc3sc(Nc4cccc(Cl)c4F)nn23)cc1` [Compound 102] was 100 to 2000 nM; that for `Oc1ccc(Cc2nnc3sc(Nc4cccc(F)c4Cl)nn23)cc1Cl` [Compound 103] was 100 to 2000 nM.
As for `Oc1ccc(Cc2nnc3sc(Nc4cc(F)cc(F)c4)nn23)cc1Cl` [Compound 104], the Ki is below 100 nM.
The value for `C[C@@H](c1ccc(O)cc1)c1nnc2sc(Nc3cccc(F)c3)nn12` [Compound 105] was below 100 nM; that for `C[C@H](c1ccc(O)cc1)c1nnc2sc(Nc3cccc(F)c3)nn12` [Compound 106] was below 100 nM; that for `Fc1cccc(Nc2nn3c(Cc4ccc5c(c4)OCO5)nnc3s2)c1` [Compound 107] was below 100 nM.
On to `Oc1ccc(Cc2nnc3sc(Nc4cccc(F)c4)nn23)cc1F` [Compound 108], for which the Ki was below 100 nM.
The value for `Oc1cccc(CCc2nnc3sc(Nc4cccc(Cl)c4F)nn23)c1` [Compound 109] was 100 to 2000 nM; that for `Oc1cccc(Cc2nnc3sc(Nc4cccc(F)c4Cl)nn23)c1` [Compound 110] was 100 to 2000 nM; that for `Oc1ccc(CCc2nnc3sc(Nc4cc(F)cc(F)c4)nn23)cc1` [Compound 111] was 100 to 2000 nM.
As to `O=C(Nc1cccc(Cl)c1)Nc1nn2c(Cc3ccc(O)cc3)nnc2s1` [Compound 112], the inhibition constant Ki is above 2000 nM.
For `O=C(Nc1ccccc1)Nc1nn2c(Cc3ccc(O)cc3)nnc2s1` [Compound 113], the Ki is above 2000 nM.
Regarding `O=C(Nc1ccc(F)cc1)Nc1nn2c(Cc3ccc(O)cc3)nnc2s1` [Compound 114], the inhibition constant (Ki) is above 2000 nM.
For `COc1ccc(NC(=O)Nc2nn3c(Cc4ccc(O)cc4)nnc3s2)cc1` [Compound 115], the Ki is above 2000 nM.
For the compound `C[C@@H](c1ccc(O)cc1)c1nnc2sc(Nc3cccc(Cl)c3)nn12` [Compound 116], the Ki was below 100 nM.
As to `C[C@@H](c1ccc(O)cc1)c1nnc2sc(Nc3ccc(Cl)cc3)nn12` [Compound 117], the Ki is below 100 nM.
Regarding `C[C@H](c1ccc(O)cc1)c1nnc2sc(Nc3ccc(Cl)cc3)nn12` [Compound 118], the Ki was in the range of 100 to 2000 nM.
The value for `Oc1cccc(CCc2nnc3sc(Nc4cc(F)cc(F)c4)nn23)c1` [Compound 120] was above 2000 nM; that for `Oc1cccc(CCc2nnc3sc(Nc4cccc(F)c4F)nn23)c1` [Compound 121] was above 2000 nM.
Consider `Oc1cccc(Cc2nnc3sc(Nc4cccc(F)c4)nn23)c1` [Compound 122], for which the Ki is 100 to 2000 nM.
With `Oc1cccc(Cc2nnc3sc(Nc4cccc(F)c4F)nn23)c1` [Compound 123] the figure was 100 to 2000 nM; with `Oc1cccc(Cc2nnc3sc(Nc4cc(F)cc(F)c4)nn23)c1` [Compound 124], 100 to 2000 nM.

In general, Ki refers to the dissociation constant of the complex between target and ligand, obtained from inhibition or displacement.
